Data taken from patent US10231954B2, “Neurodegenerative therapies” (LYTIX BIOPHARMA AS, priority 2014, dated 2019).
Read-outs that look alike come from different tables or passages of the source.

Key:
Type in all cases: biochemical
EPH-B3 = target: T1, EPH-B3 (Homo sapiens, UniProt P54753); experiment: Kinase profiling EPH-B3; conditions: for remaining activity at 100 µM: read-out: residual kinase activity, EPH-B3
T1 sequence (P54753 34-998): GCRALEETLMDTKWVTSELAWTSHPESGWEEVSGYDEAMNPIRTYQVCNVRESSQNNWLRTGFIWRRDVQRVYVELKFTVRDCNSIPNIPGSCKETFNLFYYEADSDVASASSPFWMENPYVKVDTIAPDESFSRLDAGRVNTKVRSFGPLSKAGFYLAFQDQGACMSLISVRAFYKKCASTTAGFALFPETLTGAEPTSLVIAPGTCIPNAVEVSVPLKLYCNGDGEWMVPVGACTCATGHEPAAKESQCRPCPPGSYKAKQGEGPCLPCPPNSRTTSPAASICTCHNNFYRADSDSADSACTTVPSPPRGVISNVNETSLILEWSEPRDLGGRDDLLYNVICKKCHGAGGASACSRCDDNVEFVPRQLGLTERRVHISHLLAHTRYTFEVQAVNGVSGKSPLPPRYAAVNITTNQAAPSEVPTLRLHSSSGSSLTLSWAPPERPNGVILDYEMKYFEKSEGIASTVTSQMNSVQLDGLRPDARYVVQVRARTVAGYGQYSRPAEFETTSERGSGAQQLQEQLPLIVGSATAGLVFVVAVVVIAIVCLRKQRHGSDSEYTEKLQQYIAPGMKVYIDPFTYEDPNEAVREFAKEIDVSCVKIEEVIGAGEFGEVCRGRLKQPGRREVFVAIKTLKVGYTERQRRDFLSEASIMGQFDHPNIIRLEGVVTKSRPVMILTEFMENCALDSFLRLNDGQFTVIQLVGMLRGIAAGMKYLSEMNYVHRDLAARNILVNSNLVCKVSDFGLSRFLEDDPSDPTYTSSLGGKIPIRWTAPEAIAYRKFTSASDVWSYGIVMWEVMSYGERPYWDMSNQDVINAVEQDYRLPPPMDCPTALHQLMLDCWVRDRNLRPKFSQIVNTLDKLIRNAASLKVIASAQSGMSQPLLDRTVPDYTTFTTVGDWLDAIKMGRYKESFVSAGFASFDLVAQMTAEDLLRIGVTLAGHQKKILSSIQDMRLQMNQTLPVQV
Excerpt: (§1) Any value less that 25 is considered to be highly significant inhibition.

BRSK2 = target: T2, BRSK2 (Homo sapiens, UniProt Q8IWQ3); experiment: Kinase profiling BRSK2; conditions: for remaining activity at 100 µM: read-out: residual kinase activity, BRSK2
T2 sequence (Q8IWQ3 1-736): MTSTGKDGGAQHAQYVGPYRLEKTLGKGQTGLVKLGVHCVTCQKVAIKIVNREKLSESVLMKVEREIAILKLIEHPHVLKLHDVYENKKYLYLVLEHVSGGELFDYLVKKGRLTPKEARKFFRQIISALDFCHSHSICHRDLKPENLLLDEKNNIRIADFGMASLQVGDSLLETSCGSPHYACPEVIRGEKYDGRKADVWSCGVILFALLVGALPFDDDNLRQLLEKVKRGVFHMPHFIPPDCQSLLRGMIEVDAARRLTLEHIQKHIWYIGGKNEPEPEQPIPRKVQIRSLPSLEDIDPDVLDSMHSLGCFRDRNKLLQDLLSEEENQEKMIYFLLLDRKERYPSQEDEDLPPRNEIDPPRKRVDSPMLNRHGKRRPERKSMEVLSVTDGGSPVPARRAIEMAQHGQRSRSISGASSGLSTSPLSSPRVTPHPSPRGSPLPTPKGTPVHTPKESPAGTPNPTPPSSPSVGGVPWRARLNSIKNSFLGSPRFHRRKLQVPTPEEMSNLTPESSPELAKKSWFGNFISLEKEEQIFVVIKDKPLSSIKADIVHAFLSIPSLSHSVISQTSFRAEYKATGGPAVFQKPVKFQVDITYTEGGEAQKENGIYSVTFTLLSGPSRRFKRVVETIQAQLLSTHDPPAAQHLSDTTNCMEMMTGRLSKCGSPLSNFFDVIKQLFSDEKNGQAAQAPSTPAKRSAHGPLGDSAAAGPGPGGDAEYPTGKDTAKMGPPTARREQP
Excerpt: as §1

PRAK = target: T3, PRAK (Homo sapiens, UniProt Q8IW41); experiment: Kinase profiling PRAK; conditions: for remaining activity at 100 µM: read-out: residual kinase activity, PRAK
T3 sequence (Q8IW41 1-473): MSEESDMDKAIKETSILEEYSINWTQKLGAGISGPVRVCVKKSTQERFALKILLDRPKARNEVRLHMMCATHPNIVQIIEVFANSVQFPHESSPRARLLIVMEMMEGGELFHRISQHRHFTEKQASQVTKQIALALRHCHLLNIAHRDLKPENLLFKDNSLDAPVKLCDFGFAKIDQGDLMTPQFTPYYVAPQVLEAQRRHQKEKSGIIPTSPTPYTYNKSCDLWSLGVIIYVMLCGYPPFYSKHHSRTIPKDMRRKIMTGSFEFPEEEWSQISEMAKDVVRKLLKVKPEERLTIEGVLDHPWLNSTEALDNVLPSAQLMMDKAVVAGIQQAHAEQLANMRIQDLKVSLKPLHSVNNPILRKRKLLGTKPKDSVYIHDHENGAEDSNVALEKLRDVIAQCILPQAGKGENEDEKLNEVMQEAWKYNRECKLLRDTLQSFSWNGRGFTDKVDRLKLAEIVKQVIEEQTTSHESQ
Excerpt: as §1

[1] = 100 micromolar inhibitor concentration, 100 is no change
[2] = 100 micromolar inhibitor, 100 = no change

Structure (SMILES)	residual kinase activity, EPH-B3 (EPH-B3; [1])	residual kinase activity, BRSK2 (BRSK2; [1])	residual kinase activity, PRAK (PRAK; [1])	remaining activity at 100 µM (EPH-B3; [1])	remaining activity at 100 µM (BRSK2; [1])	remaining activity at 100 µM (PRAK; [1])	further results
O=C(Nc1nc2cc(O)ccc2s1)c1ccncc1 [Compound 03-11]	76	81	86	–	–	–	–
CC(=O)Nc1nc2cc(C)ccc2s1 [Compound 03-76]	107	79	75	–	–	–	–
CC(=O)Nc1nc2cc(O)ccc2s1 [Compound 01-66, N-(5-hydroxybenzo[d]thiazol-2-yl)acetamide]	–	–	–	–	–	–	remaining activity at 100 µM (EPH-B3): 83%; remaining activity at 100 µM (BRSK2): 56%; remaining activity at 100 µM (PRAK): 58%
CC(=O)Nc1nc2ccc(C(F)(F)F)cc2s1 [Compound 01-90]	–	–	–	89%	64%	111%	–
CC(=O)Nc1nc2ccc(O)cc2s1 [Compound 01-71]	–	–	–	66%	22%	47%	–
O=C(Nc1nc2ccc(O)cc2s1)c1ccccc1 [Compound 03-60]	93	34	39	–	–	–	–
CC(=O)Nc1nc2ccc(C#N)cc2s1 [Compound 01-94]	–	–	–	72%	67%	69%	–
COc1ccc2sc(NC(C)=O)nc2c1 [Compound 03-21]	–	–	–	106%	95%	71%	–
O=C(Nc1nc2ccc(O)cc2s1)c1ccncc1 [Compound 08-42]	88	74	74	–	–	–	–
CC(=O)Nc1cccc(NC(=O)c2nc3ccc(O)cc3s2)c1 [Compound 03-07, N-(3-acetamidophenyl)-6-hydroxybenzo[d]thiazole-2-carboxamide]	–	–	–	–	–	–	remaining activity at 100 µM (EPH-B3; [2]): 64%; remaining activity at 100 µM (BRSK2; [2]): 66%; remaining activity at 100 µM (PRAK; [2]): 59%
O=C(Nc1nc2cc(O)ccc2s1)c1ccccn1 [Compound 03-13]	44	80	90	–	–	–	–
O=C(Nc1nc2ccc(O)cc2s1)c1ccccn1 [Compound 03-12]	63	79	65	–	–	–	–
O=C(Nc1nc2ccc(O)cc2s1)c1cccnc1 [Compound 08-44]	65	52	60	–	–	–	–
CC(=O)Nc1nc2cc(C(F)(F)F)ccc2s1 [Compound 03-73]	–	–	–	114%	98%	87%	–
CC(=O)Nc1nc2ccccc2s1 [Compound 03-32]	71	91	78	–	–	–	–
CC(=O)Nc1nc2cc(F)ccc2s1 [Compound 03-77]	–	–	–	113%	77%	76%	–
O=C(Nc1nc2cc(O)ccc2s1)c1cccnc1 [Compound 03-33]	108	82	83	–	–	–	–
